{
  "source": "patent US8895282B2",
  "about": "“Use of a substance for manufacturing of a medicament for treatment of common cold” (Tanomed AB, priority 2008, dated 2014)",
  "key": {"[1]": {"test_system": "Rhinovirus 7", "conditions": "for Day 3 (cytopathic effect of RV 7 on WI 38 cells) / Day 5 (cytopathic effect of RV 7 on WI 38 cells) / Day 7 (cytopathic effect of RV 7 on WI 38 cells): 20 U GO/ml; for Incubation time for inactivation of rhinovirus: glucose oxidase 20 U/ml", "description": "Virus: Rhinovirus 7, purchased from ATCC (VR-1117), was used as a representative for the rhinovirus group. In the assays the dilutions 10^−2 and 10^−3 were used. […] 0.3 ml of each dilution was added into the vials.\nCell culture: Human lung cell fibroblasts (WI 38, ATCC-CCL-75) was used for cytopathic effect detection. 10-fold serial dilutions had been made from the concentrated viral suspension. […] Then the media was changed to RPMI with 2% of fetal calf serum, which was preserved during the assay. The cells were incubated in CO2enriched air at 37° C. During the experiments a cell culture of 17th-18^thpassage was used.\nCatalase: From Sigma-Aldrich™. A solution of 100 000 U/ml was prepared from the original solution of 10^6 U/ml.\nH2O2: a 20% solution was diluted in Phosphate buffered saline (PBS) to a 0.5% and a 0.05% solution. 0.1 ml was added to the vials, which means 0.05% or 0.005% in the vials.\nA solution of 200 U/ml and 600 U/ml was prepared from the original solution of 6000 U/ml.\nIn order to evaluate whether the effect of the hydrogen peroxide was a direct effect on the virus itself or a cytoprotective effect, we preincubated the virus with the hydrogen peroxide, before it was transferred to the wells with the cells. The WI 38 cells are also sensitive to hydrogen peroxide, and therefore it was necessary to add catalase before inoculation into the wells. […] This design would also reveal if the inhibitory effect was only a virostatic one, or if it could damage the virions irreversibly.\nIn table 1 the content of each of the 10 vials (Eppendorf) is listed. The vials were incubated in a heater keeping a stable temperature of 37° C. 1000 U of catalase was added after 15, 30 and 60 min of incubation. 2×50 μl from each vial was transferred to duplicate cell wells (a 96-well plate)."}, "[2]": {"test_system": "Rhinovirus 7", "conditions": "for Infection of WI 38 cells after 10 days of inoculation: 10 U GO + 5% glucose added after 2 days"}, "[3]": {"test_system": "Rhinovirus 7", "description": "(§1) Virus concentration=dil 2. Incubation during 30 min in heater keeping 37° C. After 30 min the effect of the hydrogen peroxide is aborted with the addition of 0.1 ml catalase solution into the vial (=1 kU/ml). • 0.7 ml 5% glucose solution+0.1 ml dil 1 of RV7 (=a7) or RV8 (=a8)+0.1 ml of the hydrogen peroxide solution (=final concentration in the vial=[…]). Incubation and abortion of the hydrogen peroxide effect similar as in a).\n(§2) Altogether 4 vials (Eppendorff): a7, a8, b7 and b8.\n(§3) After the addition of catalase, samples are transferred to a 96-well plate with flat bottom according to table 3."}, "[4]": {"test_system": "Rhinovirus 8", "description": "as §1, §2, §3"}, "[5]": {"test_system": "Rhinovirus 8", "conditions": "for Infection of WI 38 cells after 10 days of inoculation: 10 U GO + 5% glucose added after 2 days"}, "[6]": {"test_system": "WI 38 cells", "description": "as §1, §3"}, "[7]": {"conditions": "RV 7 dil 10^−2, preincubation 15 min"}, "[8]": {"conditions": "RV 7 dil 10^−2, preincubation 30 min"}, "[9]": {"conditions": "RV 7 dil 10^−2, preincubation 60 min"}, "[10]": {"conditions": "RV 7 dil 10^−3, preincubation 15 min"}, "[11]": {"conditions": "RV 7 dil 10^−3, preincubation 30 min"}, "[12]": {"conditions": "RV 7 dil 10^−3, preincubation 60 min"}, "[13]": {"conditions": "Glucose Oxidase added into the wells 2 days after the initial incubation"}, "[14]": {"conditions": "40 U/ml of Glucose Oxidase, high initial inoculate"}, "[15]": {"conditions": "50 μl a7: RV7 dil 2 preincubated 30 min with 40 U/ml Glucose Oxidase, then catalase"}, "[16]": {"conditions": "50 μl a8: RV8 dil 2 preincubated 30 min with 40 U/ml Glucose Oxidase, then catalase"}},
  "note": "Several values for one entry are separate records, joined by “and”; a condition that tells them apart may be missing. Equal entries are not always repeated. Where two headings read alike, the source gives them in different places.",
  "data": [
    {"molecule": "Glucose oxidase [GO]", "values": [
      {"measurement": "GO concentration having an effect on the Rhinovirus infection", "setting": "[1]", "value": "less than 20 U/ml"},
      {"measurement": "Day 3 (cytopathic effect of RV 7 on WI 38 cells)", "setting": "[1]; [7]", "value": "−"},
      {"measurement": "Day 5 (cytopathic effect of RV 7 on WI 38 cells)", "setting": "[1]; [7]", "value": "−"},
      {"measurement": "Day 7 (cytopathic effect of RV 7 on WI 38 cells)", "setting": "[1]; [7]", "value": "−"},
      {"measurement": "Day 3 (cytopathic effect of RV 7 on WI 38 cells)", "setting": "[1]; [8]", "value": "−"},
      {"measurement": "Day 5 (cytopathic effect of RV 7 on WI 38 cells)", "setting": "[1]; [8]", "value": "−"},
      {"measurement": "Day 7 (cytopathic effect of RV 7 on WI 38 cells)", "setting": "[1]; [8]", "value": "−"},
      {"measurement": "Day 3 (cytopathic effect of RV 7 on WI 38 cells)", "setting": "[1]; [9]", "value": "−"},
      {"measurement": "Day 5 (cytopathic effect of RV 7 on WI 38 cells)", "setting": "[1]; [9]", "value": "−"},
      {"measurement": "Day 7 (cytopathic effect of RV 7 on WI 38 cells)", "setting": "[1]; [9]", "value": "−"},
      {"measurement": "Day 3 (cytopathic effect of RV 7 on WI 38 cells)", "setting": "[1]; [10]", "value": "−"},
      {"measurement": "Day 5 (cytopathic effect of RV 7 on WI 38 cells)", "setting": "[1]; [10]", "value": "−"},
      {"measurement": "Day 7 (cytopathic effect of RV 7 on WI 38 cells)", "setting": "[1]; [10]", "value": "−"},
      {"measurement": "Day 3 (cytopathic effect of RV 7 on WI 38 cells)", "setting": "[1]; [11]", "value": "−"},
      {"measurement": "Day 5 (cytopathic effect of RV 7 on WI 38 cells)", "setting": "[1]; [11]", "value": "−"},
      {"measurement": "Day 7 (cytopathic effect of RV 7 on WI 38 cells)", "setting": "[1]; [11]", "value": "−"},
      {"measurement": "Day 3 (cytopathic effect of RV 7 on WI 38 cells)", "setting": "[1]; [12]", "value": "−"},
      {"measurement": "Day 5 (cytopathic effect of RV 7 on WI 38 cells)", "setting": "[1]; [12]", "value": "−"},
      {"measurement": "Day 7 (cytopathic effect of RV 7 on WI 38 cells)", "setting": "[1]; [12]", "value": "−"},
      {"measurement": "Amount of H2O2 produced by Glucose Oxidase, equivalent", "setting": "[1]; 20 U/ml of Glucose Oxidase", "value": "more than 0.005 % H2O2"},
      {"measurement": "Hydrogen peroxide concentration corresponding to the effective GO concentration", "setting": "[1]; GO less than 20 U/ml", "value": "more than 10 mM"},
      {"measurement": "Reversibility of the inactivation of RV 7", "setting": "[1]; Glucose Oxidase or 0.05% hydrogen peroxide solution, 7 days of incubation, no sign of recovery", "value": "irreversible"},
      {"measurement": "Glucose Oxidase concentration sufficient for complete inactivation of RV 7", "setting": "[1]; WI 38 cells", "value": 20, "unit": "U/ml"},
      {"measurement": "Cytopathic effect in wells where Glucose Oxidase had been incubated with RV 7", "setting": "[1]; after 5 days of incubation, even after only 15 min preincubation and higher RV 7 concentration", "value": "no cytopathic effect"},
      {"measurement": "Incubation time for inactivation of rhinovirus", "setting": "[1]", "value": "≤ 30", "unit": "min"},
      {"measurement": "Incubation time for inactivation of rhinovirus", "setting": "[1]; listed as glucose oxidase", "value": "less than 30 minutes"},
      {"measurement": "Infection of WI 38 cells after 10 days of inoculation", "setting": "[2]; well E1, 50 μl RV7 dilution 2", "value": "2+"},
      {"measurement": "Infection of WI 38 cells after 10 days of inoculation", "setting": "[2]; well E3, 50 μl RV7 dilution 4", "value": 0},
      {"measurement": "Infection of WI 38 cells after 10 days of inoculation", "setting": "[2]; wells F9, E9, 10 μl RV7 dilution 1", "value": "1+"},
      {"measurement": "Spread of viral infection to other cells", "setting": "[2]; [13]", "value": "could prevent the spread of viral infection"},
      {"measurement": "Inactivation of RV 7", "setting": "[3]; [14]", "value": "able to inactivate"},
      {"measurement": "Infection of WI 38 cells after 2 days of inoculation", "setting": "[3]; [15]", "value": 0},
      {"measurement": "Infection of WI 38 cells after 10 days of inoculation", "setting": "[3]; [15]", "value": 0},
      {"measurement": "Inactivation of RV 8", "setting": "[4]; [14]", "value": "able to inactivate"},
      {"measurement": "Infection of WI 38 cells after 2 days of inoculation", "setting": "[4]; [16]", "value": 0},
      {"measurement": "Infection of WI 38 cells after 10 days of inoculation", "setting": "[4]; [16]", "value": 0},
      {"measurement": "Infection of WI 38 cells after 10 days of inoculation", "setting": "[5]; well E2, 50 μl RV8 dilution 2", "value": "2+"},
      {"measurement": "Infection of WI 38 cells after 10 days of inoculation", "setting": "[5]; well E4, 50 μl RV8 dilution 4", "value": 0},
      {"measurement": "Infection of WI 38 cells after 10 days of inoculation", "setting": "[5]; wells D9, C9, 10 μl RV8 dilution 1", "value": "2+ and 3+"},
      {"measurement": "Spread of viral infection to other cells", "setting": "[5]; [13]", "value": "could prevent the spread of viral infection"}
    ]},
    {"molecule": "Catalase: specific enzyme catalyzing the conversion of H2O2 into O2 and H2O; purified from human erythrocytes (protein, UniProt P04040 2-527, looked up) Catalase: ADSRDPASDQMQHWKEQRAAQKADVLTTGAGNPVGDKLNVITVGPRGPLLVQDVVFTDEMAHFDRERIPERVVHAKGAGAFGYFEVTHDITKYSKAKVFEHIGKKTPIAVRFSTVAGESGSADTVRDPRGFAVKFYTEDGNWDLVGNNTPIFFIRDPILFPSFIHSQKRNPQTHLKDPDMVWDFWSLRPESLHQVSFLFSDRGIPDGHRHMNGYGSHTFKLVNANGEAVYCKFHYKTDQGIKNLSVEDAARLSQEDPDYGIRDLFNAIATGKYPSWTFYIQVMTFNQAETFPFNPFDLTKVWPHKDYPLIPVGKLVLNRNPVNYFAEVEQIAFDPSNMPPGIEASPDKMLQGRLFAYPDTHRHRLGPNYLHIPVNCPYRARVANYQRDGPMCMQDNQGGAPNYYPNSFGAPEQQPSALEHSIQYSGEVRRFNTANDDNVTQVRAFYVNVLNEEQRKRLCENIAGHLKDAQIFIQKKAVKNFTEVHPDYGSHIQALLDKYNAEKPKNAIHTFVQSGSHLAAREKANL", "values": [
      {"measurement": "Effect on WI 38 cells after 2 days", "setting": "[6]", "value": 0},
      {"measurement": "Effect on WI 38 cells after 10 days", "setting": "[6]", "value": 0}
    ]}
  ]
}
